Measurements from patent US20030166202A1, “P450 Monooxygenases of the cyp79 family” (priority 2000, published 2003).

What was measured:
CYP79A2 = target: T1, CYP79A2 (Arabidopsis thaliana, UniProt Q9FLC8); test: CYP79A2 activity in E. coli spheroplasts reconstituted with NADPH:cytochrome P450 oxidoreductase
T1 sequence (Q9FLC8 7-529 limits assumed): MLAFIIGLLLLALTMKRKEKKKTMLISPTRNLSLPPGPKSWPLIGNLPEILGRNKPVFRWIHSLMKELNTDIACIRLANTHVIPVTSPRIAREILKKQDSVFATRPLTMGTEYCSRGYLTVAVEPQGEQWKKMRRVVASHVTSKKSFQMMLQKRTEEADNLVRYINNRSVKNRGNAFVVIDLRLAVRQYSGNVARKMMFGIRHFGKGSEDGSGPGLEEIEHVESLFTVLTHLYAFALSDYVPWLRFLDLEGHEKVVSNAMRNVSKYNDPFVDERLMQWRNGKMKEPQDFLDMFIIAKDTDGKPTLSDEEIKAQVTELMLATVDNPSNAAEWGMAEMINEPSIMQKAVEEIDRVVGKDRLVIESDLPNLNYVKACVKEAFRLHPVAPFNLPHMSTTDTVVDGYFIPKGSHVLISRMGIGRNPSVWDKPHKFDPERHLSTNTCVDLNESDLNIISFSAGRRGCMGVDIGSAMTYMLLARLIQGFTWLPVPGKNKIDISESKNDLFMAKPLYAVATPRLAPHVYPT

[1] = Non-enzymatic conversion of tryptophan under oxidative conditions; details: 100 mM H2O2, 1 mM MnCl2, 800 μM 2,4-dichlorophenol in 50 mM Tricine buffer, pH 8.0, no enzyme
CYP79F1 = CYP79F1 (Arabidopsis thaliana, UniProt Q949U1, M2A); details: E. coli C43(DE3) spheroplasts, GC-MS or TLC
Chain of CYP79F1 (Q949U1 whole entry M2A): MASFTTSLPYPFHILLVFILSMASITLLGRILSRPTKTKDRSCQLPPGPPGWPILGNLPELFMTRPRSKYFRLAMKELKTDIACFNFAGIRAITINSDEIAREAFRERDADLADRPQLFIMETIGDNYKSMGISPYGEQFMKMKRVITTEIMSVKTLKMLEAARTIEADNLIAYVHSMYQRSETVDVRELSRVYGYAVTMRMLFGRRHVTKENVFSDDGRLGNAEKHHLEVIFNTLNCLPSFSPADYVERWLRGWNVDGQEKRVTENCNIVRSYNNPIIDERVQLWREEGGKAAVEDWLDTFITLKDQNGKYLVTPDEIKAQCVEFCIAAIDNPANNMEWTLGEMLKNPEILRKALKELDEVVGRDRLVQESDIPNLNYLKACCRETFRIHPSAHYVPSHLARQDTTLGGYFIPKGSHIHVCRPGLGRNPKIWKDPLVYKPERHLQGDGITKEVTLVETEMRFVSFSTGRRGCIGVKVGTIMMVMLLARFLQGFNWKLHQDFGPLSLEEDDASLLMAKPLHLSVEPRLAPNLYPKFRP
Method: In a typical enzyme assay, 5 μl spheroplasts and 4 μl NADPH:cytochrome P450 reductase (equivalent to 0.04 units defined as 1 μmol cytochrome c/min) are incubated with substrate in buffer containing 30 mM KPi, pH 7.5, 3 mM NADPH, 3 mM reduced glutathione, 0.042% Tween 80, 1 mg ml^−1 L-α-dilauroylphosphatidylcholine in a total volume of 30 μl. Reaction mixtures containing spheroplasts of E. coli C43(DE3) transformed with empty vector are used as controls in all assays. 3.3 μM L-[U-^14C]phenylalanine (453 mCi/mmol; Pharmacia), 3.7 μM L-[U-^14C]tyrosine (449 mCi/mmol; Pharmacia), 0.1 mM L-[methyl-^14C]methionine (56 mCi/mmol; Pharmacia), and 24 μM L-[side chain-3-^14C]tryptophan (56.5 mCi/mmol; NEN) are tested as potential substrates. After incubation at 28° C. for 1 hour, half of the reaction mixture is analyzed by TLC on Silica Gel 60 F254 sheets (Merck) using toluene/ethyl acetate 5:1 (v/v) as eluent. Radiolabelled bands are visualized and quantified using a STORM 840 phosphoimager (Pharmacia). For GC-MS analysis, 450 μl reaction mixture containing 3.3 mM L-methionine (Sigma), 3.3 mM DL-dihomomethionine or 3.3 mM DL-trihomomethionine, respectively, are incubated for 4 hours at 25° C. and extracted with a total volume of 600 μl CHCl3. The organic phase is collected, evaporated, and the residue is dissolved in 15 μl CHCl3 and analyzed by GC-MS. […] An SGE column (BPX5, 25 m×0.25 mm, 0.25 μm film thickness) is used (heat pressure 100 kPa, splitless injection). The oven temperature program is as follows: 80° C. for 3 minutes, 80° C. to 180° C. at 5° C. min^−1, 180° C. to 300° C. at 20° C. min^−1, and 300° C. for 10 min. The ion source is run in EI mode (70 eV) at 200° C. […] DL-dihomomethionine, DL-trihomomethionine, 5-methylthiopentanaldoxime and 6-methylthiohexanaldoxime are synthesized as described (Dawson et al, J. Biol. Chem. 268: 27154-27159, 1993) and authenticated by NMR spectroscopy.

CYP79B2 = target: T2, CYP79B2 (Arabidopsis thaliana, UniProt O81346); test: CYP79B2 activity in E. coli spheroplasts reconstituted with NADPH:cytochrome P450 reductase
T2 sequence (O81346 1-541): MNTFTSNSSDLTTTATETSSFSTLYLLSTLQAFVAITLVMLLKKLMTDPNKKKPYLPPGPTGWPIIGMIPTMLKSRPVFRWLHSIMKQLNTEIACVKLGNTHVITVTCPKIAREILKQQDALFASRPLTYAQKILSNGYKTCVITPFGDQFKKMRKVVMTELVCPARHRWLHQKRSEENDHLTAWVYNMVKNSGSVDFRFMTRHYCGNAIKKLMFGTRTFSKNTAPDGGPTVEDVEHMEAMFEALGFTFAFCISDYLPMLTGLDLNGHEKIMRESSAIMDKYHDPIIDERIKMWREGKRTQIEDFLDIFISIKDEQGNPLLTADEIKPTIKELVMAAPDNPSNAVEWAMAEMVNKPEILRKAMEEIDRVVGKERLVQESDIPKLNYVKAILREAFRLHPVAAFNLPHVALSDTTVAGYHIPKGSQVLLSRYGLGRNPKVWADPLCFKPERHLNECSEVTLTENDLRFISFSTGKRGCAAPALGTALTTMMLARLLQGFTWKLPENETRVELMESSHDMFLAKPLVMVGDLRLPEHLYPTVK
Method: The activity of CYP79B2 is measured by reconstituting spheroplasts from E. coli expressing CYP79B2 with purified NADPH:cytochrome P450 reductase from Sorghum bicolor (L.) Moench. […] The reaction is incubated at 34° C. for 30 minutes, extracted two times with ethyl acetate and the ethyl acetate phase is analyzed by TLC using toluen:ethyl acetate 5:1 as eluent. Radiolabelled bands are visualized on a Storm 840 phosphorimager (Molecular Dynamics) and quantified with ImageQuant analysis software (Molecular Dynamics). Substrate specificity is investigated by substituting the ^14C-labelled tryptophan with ^14C-labelled tyrosine or phenylalanine. GC-MS is employed to verify the structure of the compound produced from tryptophan by recombinant CYP79B2. A 450 μl reaction mixture as described above containing 2 mM unlabelled tryptophan is incubated at 34° C. for 2 hours. The reaction mixture is extracted twice with 300 μl CHCl3 and lyophilized until dryness. GC-MS is performed with an HP5890 Series II gas chromatograph coupled to a Jeol JMS-AX505W mass spectrometer. Splitless injection on an SGE column (BPX5, 25 mm×0.25 mm, 0.25 μm film thickness) and a head pressure of 100 kPa are used.
Single colonies are grown overnight at 37° C. in LB medium containing 100 μg/ml ampicillin. 1 ml of the overnight culture is used to inoculate 75 ml TB medium containing 100 μg/ml ampicillin, 75 μg/ml δ-aminolevulinic acid, 1 mM thiamine and 1 mM IPTG. The TB cultures are grown for 44 hours at 125 rpm and 28° C.

[2] = substrate: N[C@@H](Cc1ccccc1)C(=O)O; test: purified protein, by the assay type; details: other: spheroplasts expressing 'native' CYP79A2, 2 hours at 26° C., pH 7.5
[3] = substrate: N[C@@H](Cc1c[nH]c2ccccc12)C(=O)O; test: purified protein, by the assay type; details: other: native CYP79B2 construct; pH 7.9

N[C@@H](Cc1c[nH]c2ccccc12)C(=O)O [L-tryptophan]
production of the respective aldoxime by CYP79A2 (CYP79A2): does not result in production of detectable amounts of the respective aldoximes | conversion rate to compound co-migrating with IAOX relative to CYP79B2 [1]: approximately 0.7% | formation of the corresponding aldoxime by CYP79F1 (CYP79F1): did not result in the formation of detectable amounts of the corresponding aldoximes | Vmax (CYP79B2; native CYP79B2 construct): 97.2 pmol/h/μl spheroplast | oxime production by CYP79B2 (CYP79B2; radiolabelled amino acid, TLC): production of a strong band that co-migrates with authentic IAOX standard

B1: CYP79A2 (Arabidopsis thaliana) (protein)
chain: MLAFIIGLLLLALTMKRKEKKKTMLISPTRNLSLPPGPKSWPLIGNLPEILGRNKPVFRWIHSLMKELNTDIACIRLANTHVIPVTSPRIAREILKKQDSVFATRPLTMGTEYCSRGYLTVAVEPQGEQWKKMRRVVASHVTSKKSFQMMLQKRTEEADNLVRYINNRSVKNRGNAFVVIDLRLAVRQYSGNVARKMMFGIRHFGKGSEDGSGPGLEEIEHVESLFTVLTHLYAFALSDYVPWLRFLDLEGHEKVVSNAMRNVSKYNDPFVDERLMQWRNGKMKEPQDFLDMFIIAKDTDGKPTLSDEEIKAQVTELMLATVDNPSNAAEWGMAEMINEPSIMQKAVEEIDRVVGKDRLVIESDLPNLNYVKACVKEAFRLHPVAPFNLPHMSTTDTVVDGYFIPKGSHVLISRMGIGRNPSVWDKPHKFDPERHLSTNTCVDLNESDLNIISFSAGRRGCMGVDIGSAMTYMLLARLIQGFTWLPVPGKNKIDISESKNDLFMAKPLYAVATPRLAPHVYPT
Km [2]: 6.7 μmol I^−1

B2: CYP79B2 (Arabidopsis thaliana) (protein)
chain: MNTFTSNSSDLTTTATETSSFSTLYLLSTLQAFVAITLVMLLKKLMTDPNKKKPYLPPGPTGWPIIGMIPTMLKSRPVFRWLHSIMKQLNTEIACVKLGNTHVITVTCPKIAREILKQQDALFASRPLTYAQKILSNGYKTCVITPFGDQFKKMRKVVMTELVCPARHRWLHQKRSEENDHLTAWVYNMVKNSGSVDFRFMTRHYCGNAIKKLMFGTRTFSKNTAPDGGPTVEDVEHMEAMFEALGFTFAFCISDYLPMLTGLDLNGHEKIMRESSAIMDKYHDPIIDERIKMWREGKRTQIEDFLDIFISIKDEQGNPLLTADEIKPTIKELVMAAPDNPSNAVEWAMAEMVNKPEILRKAMEEIDRVVGKERLVQESDIPKLNYVKAILREAFRLHPVAAFNLPHVALSDTTVAGYHIPKGSQVLLSRYGLGRNPKVWADPLCFKPERHLNECSEVTLTENDLRFISFSTGKRGCAAPALGTALTTMMLARLLQGFTWKLPENETRVELMESSHDMFLAKPLVMVGDLRLPEHLYPTVK
Km [3]: 21 µM
